From patent publication US20160238617A1, “[…] AND METHODS […] TO INNER EAR DISORDERS” (THE UNIVERSITY OF CONNECTICUT, priority 2015, published 2016) come the findings set out here.

The structures appear in SMILES notation.

For series [1], the system named is prestin. Nature of the series: serum prestin concentration in mice treated with cisplatin. It counts as in vivo. The following applies: same time course up to two weeks after exposure. The method, then:
Although the hearing threshold measured by ABR was unaffected, prestin levels continued to change after exposure to cisplatin.
The ototoxin drug cisplatin (a commonly used chemotherapeutic agent) was administered and then functional assessment of hearing and measurement of prestin were carried out at several intervals up to two weeks after exposure. Hearing was assessed using a standard testing protocol called click-evoked auditory brainstem response (ABR) (FIG. 13).

Series [2] deals with prestin. Nature of the series: serum prestin level in cisplatin-treated rats. It counts as in vivo. Conditions: 72 hours after treatment, compared to controls. The text has this:
Rats are more vulnerable to ototoxic damage than mice.

Regarding `N.N.[Cl][Pt][Cl]` [cisplatin], in the series with prestin [1], the “serum concentrations of prestin” value is listed as “increasing”. In addition, the serum prestin level result in the series with prestin [2] is “elevated”.
